US9462805B2, “Herbicide-resistant proteins, encoding genes, and uses thereof” (Beijing Dabeinong Technology Group Co., Ltd., priority 2012, dated 2016)

What was measured:
[1] = tested on: wild-type Arabidopsis plants; experiment: Herbicide resistance effect test of wild-type Arabidopsis plants; assay type: in vivo, Arabidopsis thaliana; conditions: number of plants, genotype Wild, 560 g ae/ha sprayed; for Moderately resistant: curly rosette leaves 7 days after spraying; for Non-resistant: dead 14 days after spraying; for Highly resistant: growth consistent with blank solvent 7 days after spraying; for Lowly resistant: incapable of bolting 14 days after spraying
Excerpt: 24DT02 gene was used to transform Arabidopsis for the first time. At first, T1 transformants were selected from the background of un-transformed seeds, using glufosinate-ammonium selection scheme. About 40000 T1 seeds were screened among which 195 strains of T1 generation positive transformants (PAT gene) were identified, i.e. the transformation efficiency was about 0.5%. Herbicide resistance effect tests to 2,4-D dimethyl ammonium salt and agroxone of Arabidopsis T1 plants transformed with 24DT02 nucleotide sequence, substituted 24DT02 nucleotide sequence, truncated 24DT02 nucleotide sequence, added 24DT02 nucleotide sequence, control nucleotide sequence respectively and wild-type Arabidopsis plants were performed after 18 days of planting. Arabidopsis T1 plants transformed with 24DT02 nucleotide sequence, substituted 24DT02 nucleotide sequence, truncated 24DT02 nucleotide sequence, added 24DT02 nucleotide sequence and control nucleotide sequence respectively and wild-type Arabidopsis plants were sprayed with 2,4-D dimethyl ammonium salt (560 g ae/ha, 1-fold concentration in field), agroxone (560 g ae/ha, 1-fold concentration in field) and blank solvent (water). Resistance conditions of the plants were counted 7 days and 14 days after spraying. Plants with growth conditions consistent with blank solvent (water) 7 days after spaying were classified as highly resistant plants; Plants with curly rosette leaves 7 days after spaying were classified as moderately resistant plants; Plants incapable of bolting 14 days after spaying were classified as low-resistant plants and the dead plants 14 days after spaying were classified as non-resistant plants. Because each Arabidopsis T1 plant was an independent transformation event, significant differences of individual T1 responses were expected under a given dose.

[2] = tested on: corn plants transfected with 24DT02 nucleotide sequence; experiment: Herbicide-resistance effect test of transgenic corn plants (24DT02; strains S1-S3); assay type: in vivo, maize; conditions: 21 days after spraying; for Normal development of prop roots / Abnormal development of prop roots: number of plants
Protocol: Herbicide resistance effects tests to 2,4-D dimethyl ammonium salt and agroxone of maize plants containing 24DT02 nucleotide sequence, 24DT02 substituted nucleotide sequence, 24DT02 truncated nucleotide sequence, 24DT02 added nucleotide sequence, control nucleotide sequence respectively and wild type maize plants (stages V3-V4) were performed respectively.
Maize plants containing 24DT02 nucleotide sequence, 24DT02 substituted nucleotide sequence, 24DT02 truncated nucleotide sequence, 24DT02 added nucleotide sequence, control nucleotide sequence respectively and wild type maize plants were taken and spayed with 2,4-D dimethyl ammonium salt (8960 g ae/ha, 16-folds concentration in field), agroxone (8960 g ae/ha, 16-folds concentration in field) and blank solvent (water) respectively. Prop root development was counted 21 days after spaying. Three strains (S1, S2, and S3) of corn plants transfected with 24DT02 nucleotide sequence, two strains (S4 and S5) of corn plants transfected with 24DT02 substituted nucleotide sequence, two strains (S6 and S7) of corn plants transfected with 24DT02 truncated nucleotide sequence, two strains (S8 and S9) of corn plants transfected with 24DT02 added nucleotide sequence, two strains (S10 and S11) of corn plants transfected with control nucleotide sequence and 1 strain of wild type (CK) corn were selected and 10-15 plants from each stain were tested.

[3] = tested on: Arabidopsis T1 plants transformed with truncated 24DT02 nucleotide sequence; experiment: Herbicide resistance effect test of transgenic Arabidopsis T1 plants (24DT02-t); assay type: in vivo, Arabidopsis thaliana; conditions: number of T1 plants, genotype 24DT02-t, 560 g ae/ha sprayed; for Moderately resistant: curly rosette leaves 7 days after spraying; for Non-resistant: dead 14 days after spraying; for Highly resistant: growth consistent with blank solvent 7 days after spraying; for Lowly resistant: incapable of bolting 14 days after spraying
Protocol: On 7 days after planting (DAP) and 11 DAP respectively, the T1 plants (cotyledon stage and 2-4 leaves stage, respectively) were sprayed with 0.2% of Liberty herbicide solution (200 g ai/L glufosinate-ammonium) using DeVilbiss compressed air nozzle at a spraying volume of 10 ml/disc (703 L/ha) so as to provide effective amount of glufosinate-ammonium (280 g ai/ha) for each application. The survival plants (actively growing plants) were verified 4 to 7 days after the last spraying and transferred into the square pot (7 cm×7 cm) made from vermiculite and horses dung (3-5 plants per pot). The transplanted plants were covered with moisturizing mask for 3-4 days and placed in culture room at 22° C. or directly into the greenhouse as described above. Then the mask was removed and the plants were planted in greenhouse (22±5° C., 50±30% RH, 14 hours of lighting: 10 hours of darkness, minimum […] natural light+complement light) at least one day before testing the ability of 24DT02 to provide the resistance to phenoxy auxin herbicide.
24DT02 gene was used to transform Arabidopsis for the first time. At first, T1 transformants were selected from the background of un-transformed seeds, using glufosinate-ammonium selection scheme. About 40000 T1 seeds were screened among which 195 strains of T1 generation positive transformants (PAT gene) were identified, i.e. the transformation efficiency was about 0.5%. Herbicide resistance effect tests to 2,4-D dimethyl ammonium salt and agroxone of Arabidopsis T1 plants transformed with 24DT02 nucleotide sequence, substituted 24DT02 nucleotide sequence, truncated 24DT02 nucleotide sequence, added 24DT02 nucleotide sequence, control nucleotide sequence respectively and wild-type Arabidopsis plants were performed after 18 days of planting.
Arabidopsis T1 plants transformed with 24DT02 nucleotide sequence, substituted 24DT02 nucleotide sequence, truncated 24DT02 nucleotide sequence, added 24DT02 nucleotide sequence and control nucleotide sequence respectively and wild-type Arabidopsis plants were sprayed with 2,4-D dimethyl ammonium salt (560 g ae/ha, 1-fold concentration in field), agroxone (560 g ae/ha, 1-fold concentration in field) and blank solvent (water). Resistance conditions of the plants were counted 7 days and 14 days after spraying. Plants with growth conditions consistent with blank solvent (water) 7 days after spaying were classified as highly resistant plants; Plants with curly rosette leaves 7 days after spaying were classified as moderately resistant plants; Plants incapable of bolting 14 days after spaying were classified as low-resistant plants and the dead plants 14 days after spaying were classified as non-resistant plants. Because each Arabidopsis T1 plant was an independent transformation event, significant differences of individual T1 responses were expected under a given dose.

[4] = tested on: Arabidopsis; experiment: Effective dose distinguishing sensitive from resistant Arabidopsis; assay type: in vivo
[5] = corn strain S1 (24DT02), 8960 g ae/ha sprayed
[6] = corn strain S2 (24DT02), 8960 g ae/ha sprayed
[7] = corn strain S3 (24DT02), 8960 g ae/ha sprayed
[8] = corn strain S1 (24DT02), 8960 g ae/ha (16-fold field concentration) sprayed at V3-V4

Structure (SMILES): CNC.O=C(O)COc1ccc(Cl)cc1Cl [2,4-D dimethyl ammonium salt]
- Moderately resistant [1]: 0
- Non-resistant [1]: 20
- Highly resistant [1]: 0
- Lowly resistant [1]: 0
- Ratio of the normally developed prop roots [2, 5]: 81.25%
- Ratio of the normally developed prop roots [2, 6]: 91.67%
- Ratio of the normally developed prop roots [2, 7]: 85.71%
- Normal development of prop roots [2, 8]: 13
- Abnormal development of prop roots [2, 5]: 3
- Abnormal development of prop roots [2, 6]: 1
- Normal development of prop roots [2, 6]: 11
- Abnormal development of prop roots [2, 7]: 2
- Normal development of prop roots [2, 7]: 12
- Moderately resistant [3]: 5
- Non-resistant [3]: 4
- Highly resistant [3]: 7
- Lowly resistant [3]: 0

Structure (SMILES): Cc1cc(Cl)ccc1OCC(=O)O [agroxone]
- effective dose to distinguish the sensitive plants from plants with average resistance [4]: 50 g ae/ha
- Moderately resistant [1]: 0
- Non-resistant [1]: 16
- Highly resistant [1]: 0
- Lowly resistant [1]: 0
- Ratio of the normally developed prop roots [2, 5]: 87.50%
- Ratio of the normally developed prop roots [2, 6]: 100.00%
- Ratio of the normally developed prop roots [2, 7]: 92.31%
- Normal development of prop roots [2, 8]: 14
- Abnormal development of prop roots [2, 5]: 2
- Abnormal development of prop roots [2, 6]: 0
- Normal development of prop roots [2, 6]: 12
- Abnormal development of prop roots [2, 7]: 1
- Normal development of prop roots [2, 7]: 12
- Moderately resistant [3]: 4
- Non-resistant [3]: 4
- Highly resistant [3]: 8
- Lowly resistant [3]: 2
